Test results published in patent US20100069345A1, “Lanthanide-porphyrin complexes as anti-tumor agents” (priority 2005, published 2010).

What was measured:
LC3 = test: Subcellular distribution of GFP-LC3; format: cell-based, human; settings: HeLa transfected with GFP-LC3, 1 μM, 1-4 hours
Method: Subcellular Distribution of LC3. HeLa cells were transiently transfected with a plasmid expressing green fluorescent protein-tagged LC3 (GFP-LC3) using GeneJuice (Novagen, USA). After overnight incubation, HeLa cells were treated 1 (1 μM) for 1, 2, 3, and 4 hours respectively. Green fluorescence of GFP-LC3 was examined under the Olympus IX71 microscope (Melville, N.Y.). Images were captured with CCD digital camera RT COLOR, Spot (Diagnostic Instruments, Inc., Melville, N.Y.).
The redistribution of microtubule-associated protein 1 light chain 3 (LC3) was also examined. LC3 is a maker of autophagosomes in mammalian cells which the localization changes from a diffuse cytosolic pattern to a punctuate pattern representing its recruitment to the autophagosomal membrane during the induction of autophagy. HeLa cells were transfected with plasmid encoded a fusion protein of GFP and LC3 (GFP-LC3), so that the cellular trafficking of LC3 can be directly visualized by live fluorescence microscopy.

[1] = system: cisplatin-resistant variant (CNE2) of human nasopharyngeal carcinoma cells; test: MTT cell viability assay, CNE2; format: cell-based
Text: (§1) Human cervical epitheloid carcinoma cells (HeLa), human hepatocellular carcinoma cells (HepG2 and Hep3B), human breast cancer cells (MCF-7), human coloadenocarcinoma cells (HCT-8), and normal human lung fibroblast cells (CCD-19Lu) were purchased from American Type Culture Collection (ATCC) Rockville, Md., USA. The human hepatocellular cancinoma cells QGY-7703, and the multi-drug resistant cell line QGY-TR50 derived from QGY-7703, were generously provided by Prof. Yong Xie (The Hong Kong University of Science and Technology, Hong Kong PRC). QGY-TR50 cells were isolated and cultured as described (J. Zhou, S. C. Cheng, D. Luo, Y. Xie Biochem. Biophys. Res. Commun. 2001, 280, 1237-1242). Human nasopharyngeal carcinoma cells (SUNE1 and its cisplatin-resistant variant—CNE2) were derived from poorly differentiated NPC in Chinese patients and were generously provided by Dr. S. W. Tsao (The University of Hong Kong, Hong Kong PRC). Cell culture flasks and 96-well microtitre plates were from Nalge Nunc Int. Culture medium, other medium constituents and phosphate buffer saline (PBS) were obtained by Gibco BRL Rockville, Md., USA. Cell Proliferation kit I (MTT) was purchased from Roche. Mannheim, Germany.

[2] = system: human coloadenocarcinoma cells (HCT-8); test: MTT cell viability assay, HCT-8; format: cell-based
Text: as §1

Caspase 3 = test: Western blotting analysis, caspase 3; format: cell-based, human; settings: HeLa, 2 μM, 32 h
Method: Cells were washed in cold phosphate-buffered saline (PBS) at 4° C. and lysed in a buffer containing 0.05 M Tis.HCl (pH 7.5), 0.25 M NaCl, 0.005 M EDTA, 0.05 M NaF, 1 mM DTT and 1% Triton. Cell lysates were collected and the protein concentration of cell lysates was measured using a Protein detection kit (Bio-Rad). Equal amount of proteins was resolved in a 12% SDS-PAGE gel and transferred onto nitrocellulose membranes. The membrane was blocked with a blocking solution (1×TBS, 0.1% Tween-20 with 5% non-fat dry milk) at room temperature for 1 h, and washed three times with washing buffer (1×TBS, 0.1% Tween-20) for 5 min each. The membrane was then incubated with primary antibody (Caspase 3, Bid, PARP and β-Actin respectively) for overnight at 4° C. The membrane was washed three times with washing buffer for 5 min each before incubation with the corresponding secondary antibody (horse anti-mouse IgG or goat anti-rabbit IgG). Membrane was washed again and signals were detected using an ECL detection kit (Amersham Pharmacia Biotech) followed by the exposure to X-ray films (Fujifilm).
After treatment with complex 1 for different time intervals, the expressions of caspase 3, Bid and PARP were detected by the Western blotting analysis. […] Moreover, treatment with complex 1 leads to a reduction in the level of un-cleaved Bid.

[3] = system: normal human lung fibroblast cells (CCD-19Lu); test: MTT cell viability assay, CCD-19Lu; format: cell-based
Text: as §1

cytochrome c = test: Western blotting of mitochondrial and cytosolic fractions, cytochrome c; format: cell-based, human; settings: HeLa treated with complex 1
Method: Preparation of Mitochondrial and Cytosolic Fractions. Subcellular fractionations of cells were carried out as described previously with modifications […]. In brief, cells were harvested by centrifugation at 1000 g for 5 min at 4° C. Cell pellets were washed once with ice-cold phosphate-buffered saline and resuspended in 5 volumes of buffer A (20 mM HEPES-KOH, pH 7.5, 10 mM KCl, 1.5 mM MgCl2, 1 mM sodium EDTA, 1 mM sodium EGTA, 1 mM dithiothreitol, 0.1 mM phenylmethylsulfonyl fluoride, 1× proteinase inhibitor mix) containing 250 mM sucrose. After incubation on ice for 15 min, the cells were homogenized with a 25-gauge needle for 20 strokes, and the homogenates were centrifuged at 1,000 g for 5 min at 4° C. […] The protein concentration of cell lysates in different portions was measured using a protein detection kit (Bio-Rad). […] Signals were detected using an ECL detection kit (Amersham Pharmacia Biotech) followed by exposure to X-ray films (Fujifilm).
After treatment with complex 1 for different time intervals, the expressions of caspase 3, Bid and PARP were detected by the Western blotting analysis. […]

[4] = IC50 of cisplatin divided by IC50 of complex

IC50 ratio cisplatin/complex, CNE2 [1, 4]: 17.2
IC50 ([1]; MTT, 37° C., 48 h, mean ± SD): 3.35 µM
IC50 ratio cisplatin/complex, HCT-8 [2, 4]: 11.6
IC50 ([2]; MTT, 37° C., 48 h, mean ± SD): 2270 ± 600 nM
Substance: [Yb2(OEP)2](μ-OH)2 [Complex 1]
redistribution of GFP-LC3 (LC3): time-dependent increase in punctuated green fluorescence
expression of caspase 3 (Caspase 3): decrease dramatically
IC50 ratio cisplatin/complex, CCD-19Lu [3, 4]: 16.8
IC50 ([3]; MTT, 37° C., 48 h, mean ± SD): 5.4 ± 6.8 µM
amount of cytochrome c in the cytosolic fraction (cytochrome c): increase
amount of cytochrome c in the mitochondria (cytochrome c): corresponding decrease
